Measured values published in patent US9890185B2, “Urea derivatives useful as kinase inhibitors” (Respivert Limited, priority 2013, dated 2018).

Columns and labels:
[1] = molecular target: p38 MAPKα isoform (MAPK14) (Homo sapiens (Human), UniProt Q16539); experiment: p38 MAPKα enzyme inhibition (FRET, Z-LYTE, Method 2); assay type: biochemical
How it was run: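 Z-LYTE FRET: p38 MAPKα (80 ng/mL for Method 1, 200 ng/mL for Method 2, pre-dilution) preincubated 2 hr RT with compound (4–0.004 μg/mL solutions), activity read via MAPKAP-K2 phosphorylation after 1 hr RT and 1 hr protease development. Coumarin/fluorescein ratio gives phosphorylation; % inhibition versus uninhibited control, IC50 from concentration-response curve.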

PBMCs [2] = experiment: LPS-induced IL-8 release in PBMC cells (assay b); assay type: cell-based, human; conditions: Homo sapiens, PBMC; LPS-stimulated PBMCs; read-out: IC50 Values for Inhibition of Cytokine Release, PBMCs IL-8
How it was run: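 Cytokines (TNFα, IL-8) in supernatants were quantified by sandwich ELISA after a 24 h challenge with 1 ng/mL E. coli LPS at 37° C, 5% CO2. Healthy-donor PBMCs had been exposed to compound for 2 h beforehand. IC50 values were fitted from the concentration-response curves.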

PBMCs [3] = experiment: Cell mitosis assay in PBMCs (assay g); assay type: cell-based; conditions: Homo sapiens, PBMC, test compound 5 μg/mL
How it was run: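 Metaphase arrest with 0.1 μg/mL demecolcine during the final 2 hr of a 20 hr compound exposure, which follows 48 hr of 2% PHA stimulation of healthy-donor human PBMCs. Mitotic lymphocytes counted by flow cytometry (anti-phospho-histone 3 plus propidium iodide). Inhibition expressed relative to 0.5% DMSO.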

d-U937 cells = experiment: Accumulation of β catenin in d-U937 cells (assay m); assay type: cell-based, human; conditions: percentage relative to Reference Compound at 1 μg/mL
How it was run: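 Read-out: colourimetric cell-based immunoassay for endogenous β-catenin (OD450 minus 655 reference), normalised to crystal violet absorbance at 595 nm. Test compound or vehicle was applied for 18 hr to U937 monocytes first differentiated with PMA (100 ng/mL) for 48–72 hr.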

GSK 3α = GSK 3α (Homo sapiens (Human), UniProt P49840); experiment: GSK 3α enzyme inhibition (FRET, Z-LYTE, Method 2); assay type: biochemical; conditions: read-out: IC50 Values for Enzyme Inhibition, GSK3α
How it was run: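 Phosphorylation of a dual-labelled synthetic peptide by human GSK3α is read as a coumarin/fluorescein ratio after protease development. Compound stocks run 4 to 0.004 μg/mL, and ATP stock is 40 μM.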

Chain of GSK 3α (P49840 whole entry): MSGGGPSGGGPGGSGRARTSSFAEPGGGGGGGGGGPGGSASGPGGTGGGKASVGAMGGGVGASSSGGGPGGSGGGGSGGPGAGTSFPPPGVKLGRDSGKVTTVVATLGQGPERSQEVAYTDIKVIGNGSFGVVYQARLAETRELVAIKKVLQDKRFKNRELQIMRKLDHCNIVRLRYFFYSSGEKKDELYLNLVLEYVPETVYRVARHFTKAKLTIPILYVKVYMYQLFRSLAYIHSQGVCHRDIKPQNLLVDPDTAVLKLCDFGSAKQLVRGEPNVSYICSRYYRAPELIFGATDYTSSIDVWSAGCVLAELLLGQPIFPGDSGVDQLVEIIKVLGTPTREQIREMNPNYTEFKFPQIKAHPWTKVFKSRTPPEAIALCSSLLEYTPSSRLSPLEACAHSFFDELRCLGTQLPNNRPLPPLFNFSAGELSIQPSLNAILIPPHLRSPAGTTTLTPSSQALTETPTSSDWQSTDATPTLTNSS
Chain of p38 MAPKα isoform (MAPK14) (Q16539 whole entry, canonical isoform): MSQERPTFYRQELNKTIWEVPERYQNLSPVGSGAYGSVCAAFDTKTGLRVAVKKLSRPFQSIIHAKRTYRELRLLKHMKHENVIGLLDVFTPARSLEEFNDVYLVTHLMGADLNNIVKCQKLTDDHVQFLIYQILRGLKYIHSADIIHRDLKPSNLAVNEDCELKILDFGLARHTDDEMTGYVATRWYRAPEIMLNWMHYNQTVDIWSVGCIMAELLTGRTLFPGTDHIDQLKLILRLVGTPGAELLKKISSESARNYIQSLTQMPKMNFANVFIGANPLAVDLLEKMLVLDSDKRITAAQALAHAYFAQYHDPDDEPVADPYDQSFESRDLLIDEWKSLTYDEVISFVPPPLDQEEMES

`COc1c(CP(C)(C)=O)cc(C(C)(C)C)cc1NC(=O)Nc1ccc(Oc2ccnc(Nc3ccccc3)c2)c2ccccc12` [Example 24, 1-(5-(tert-Butyl)-3-((dimethylphosphoryl)methyl)-2-methoxyphenyl)-3-(4-((2-(phenylamino)-pyridin-4-yl)oxy)naphthalen-1-yl)urea] gave an IC50 [1] of 220 nM, an IC50 (PBMCs [2]) of 3.1 nM and an inhibition at 5 µg/mL (PBMCs [3]) of 37.9%. The “% β-catenin induction” value (d-U937 cells; test compound 1 μg/mL) was −3.0%, the “% β-catenin induction” value (d-U937 cells; test compound 5 μg/mL) was 13.0% and the “% β-catenin induction” value (d-U937 cells; test compound 10 μg/mL) was 16.5%. The IC50 (GSK 3α) was 7450 nM.
Molecule `COc1c(C[S+](C)[O-])cc(C(C)(C)C)cc1NC(=O)Nc1ccc(Oc2ccnc(Nc3ccccc3)c2)c2ccccc12` (centres unmarked) [Example 25, 1-(5-(tert-Butyl)-2-methoxy-3-((methylsulfinyl)methyl)phenyl)-3-(4-((2-(phenylamino)pyridin-4-yl)oxy)naphthalen-1-yl)urea] has an IC50 [1] of 323 nM, an IC50 (PBMCs [2]) of 5.3 nM and an inhibition at 5 µg/mL (PBMCs [3]) of 24.5%. For the same molecule, the “% β-catenin induction” value (d-U937 cells; test compound 1 μg/mL) was 1.0%, the “% β-catenin induction” value (d-U937 cells; test compound 5 μg/mL) was 8.0% and the “% β-catenin induction” value (d-U937 cells; test compound 10 μg/mL) was 17.5%. The IC50 (GSK 3α) was 9620 nM.
Molecule `COc1c(NC(=O)Nc2ccc(Oc3ccnc(Nc4cc(C)cc(C)c4)c3)c3ccccc23)cc(C(C)(C)C)cc1P(C)(C)=O` [Example 28, 1-(5-(tert-Butyl)-3-(dimethylphosphoryl)-2-methoxyphenyl)-3-(4-((2-((3,5-dimethylphenyl)-amino)pyridin-4-yl)oxy)naphthalen-1-yl)urea] has an IC50 [1] of 254 nM, an IC50 (PBMCs [2]) of 2.5 nM and an inhibition at 5 µg/mL (PBMCs [3]) of 54.4%. The “% β-catenin induction” value (d-U937 cells; test compound 1 μg/mL) was 3.0%, the “% β-catenin induction” value (d-U937 cells; test compound 5 μg/mL) was 6.7% and the “% β-catenin induction” value (d-U937 cells; test compound 10 μg/mL) was 11.3%. It also gave an IC50 (GSK 3α) of 8260 nM.
For `COc1cc(Nc2cc(Oc3ccc(NC(=O)Nc4cc(C(C)(C)C)cc(CC(N)=O)c4OC)c4ccccc34)ccn2)cc(OC)c1` [Example 30, 2-(5-(tert-Butyl)-3-(3-(4-((2-((3,5-dimethoxyphenyl)amino)pyridin-4-yl)oxy)naphthalen-1-yl)ureido)-2-methoxyphenyl)acetamide], the IC50 [1] was 132 nM, the IC50 (PBMCs [2]) was 1.7 nM and the inhibition at 5 µg/mL (PBMCs [3]) was 48.7%. The “% β-catenin induction” value (d-U937 cells; test compound 1 μg/mL) was 6.5%, the “% β-catenin induction” value (d-U937 cells; test compound 5 μg/mL) was 23.5% and the “% β-catenin induction” value (d-U937 cells; test compound 10 μg/mL) was 1.0%. For the same molecule, the IC50 (GSK 3α) was > 15400 nM.
Work on `COc1cccc(Nc2cc(Oc3ccc(NC(=O)Nc4cc(C(C)(C)C)cc(CC(N)=O)c4OC)c4ccccc34)ccn2)c1` [Example 33, 2-(5-(tert-Butyl)-2-methoxy-3-(3-(4-((2-((3-methoxyphenyl)amino)pyridin-4-yl)oxy)naphthalen-1-yl)ureido)phenyl)acetamide] yielded an IC50 [1] of 109 nM, an IC50 (PBMCs [2]) of 1.7 nM and an inhibition at 5 µg/mL (PBMCs [3]) of 31.3%. The “% β-catenin induction” value (d-U937 cells; test compound 1 μg/mL) was −1.0%, the “% β-catenin induction” value (d-U937 cells; test compound 5 μg/mL) was 3.5% and the “% β-catenin induction” value (d-U937 cells; test compound 10 μg/mL) was 9.5%. For the same molecule, the IC50 (GSK 3α) was 10500 nM.
In the case of `COc1c(CNC(C)=O)cc(C(C)(C)C)cc1NC(=O)Nc1ccc(Oc2ccnc(Nc3ccccc3)c2)c2ccccc12` [Example 35, N-(5-(tert-Butyl)-2-methoxy-3-(3-(4-((2-(phenylamino)pyridin-4-yl)oxy)naphthalen-1-yl)ureido)benzyl)acetamide], the IC50 [1] is reported as 294 nM, the IC50 (PBMCs [2]) is reported as 3.4 nM and the inhibition at 5 µg/mL (PBMCs [3]) is reported as 50.6%. The “% β-catenin induction” value (d-U937 cells; test compound 1 μg/mL) was 5.5%, the “% β-catenin induction” value (d-U937 cells; test compound 5 μg/mL) was 16.5% and the “% β-catenin induction” value (d-U937 cells; test compound 10 μg/mL) was 23.5%. The IC50 (GSK 3α) was > 11800 nM.
In the case of `COc1cc(Nc2cc(Oc3ccc(NC(=O)Nc4cc(C(C)(C)C)cc(P(C)(C)=O)c4OC)c4ccccc34)ccn2)cc(C(N)=O)c1` [Example 37, 3-((4-((4-(3-(5-(tert-butyl)-3-(dimethylphosphoryl)-2-methoxyphenyl)ureido)-naphthalen-1-yl)oxy)pyridin-2-yl)amino)-5-methoxybenzamide], the IC50 [1] is reported as 62 nM, the IC50 (PBMCs [2]) is reported as 1.7 nM and the inhibition at 5 µg/mL (PBMCs [3]) is reported as 43.2%. The “% β-catenin induction” value (d-U937 cells; test compound 1 μg/mL) was 2.0%, the “% β-catenin induction” value (d-U937 cells; test compound 5 μg/mL) was 15.5% and the “% β-catenin induction” value (d-U937 cells; test compound 10 μg/mL) was 25.5%. The IC50 (GSK 3α) was 2160 nM.
Work on `COc1cc(Nc2cc(Oc3ccc(NC(=O)Nc4cc(C(C)(C)C)cc([S+](C)[O-])c4OC)c4ccccc34)ccn2)cc(OC)c1` (centres unmarked) [Example 40, 1-(5-(tert-Butyl)-2-methoxy-3-(methylsulfinyl)phenyl)-3-(4-((2-((3,5-dimethoxyphenyl)amino)pyridin-4-yl)oxy)naphthalen-1-yl)urea] yielded an IC50 [1] of 302 nM, an IC50 (PBMCs [2]) of 2.7 nM and an inhibition at 5 µg/mL (PBMCs [3]) of 44.3%. For the same molecule, the “% β-catenin induction” value (d-U937 cells; test compound 1 μg/mL) was −2.0%, the “% β-catenin induction” value (d-U937 cells; test compound 5 μg/mL) was −2.0% and the “% β-catenin induction” value (d-U937 cells; test compound 10 μg/mL) was −0.5%. For the same molecule, the IC50 (GSK 3α) was > 15300 nM.
With `COc1cccc(Nc2cc(Oc3ccc(NC(=O)Nc4cc(C(C)(C)C)cc([S+](C)[O-])c4OC)c4ccccc34)ccn2)c1` (centres unmarked) [Example 41, 1-(5-(tert-Butyl)-2-methoxy-3-(methylsulfinyl)phenyl)-3-(4-((2-((3-methoxyphenyl)amino)pyridin-4-yl)oxy)naphthalen-1-yl)urea] the IC50 [1] was 179 nM, the IC50 (PBMCs [2]) was 2.9 nM and the inhibition at 5 µg/mL (PBMCs [3]) was 36%. For the same molecule, the “% β-catenin induction” value (d-U937 cells; test compound 1 μg/mL) was −1.0%, the “% β-catenin induction” value (d-U937 cells; test compound 5 μg/mL) was −1.5% and the “% β-catenin induction” value (d-U937 cells; test compound 10 μg/mL) was 1.5%. It also gave an IC50 (GSK 3α) of 10200 nM.
Work on `COc1cccc(Nc2cc(Oc3ccc(NC(=O)Nc4cc(C(C)(C)C)cc(CNC(C)=O)c4OC)c4ccccc34)ccn2)c1` [Example 43, N-(5-(tert-Butyl)-2-methoxy-3-(3-(4-((2-((3-methoxyphenyl)amino)pyridin-4-yl)oxy)naphthalen-1-yl)ureido)benzyl)acetamide] yielded an IC50 [1] of 129 nM, an IC50 (PBMCs [2]) of 1.4 nM and an inhibition at 5 µg/mL (PBMCs [3]) of 62.1%. The “% β-catenin induction” value (d-U937 cells; test compound 1 μg/mL) was 7.5%, the “% β-catenin induction” value (d-U937 cells; test compound 5 μg/mL) was 19.5% and the “% β-catenin induction” value (d-U937 cells; test compound 10 μg/mL) was 20.5%. For the same molecule, the IC50 (GSK 3α) was 7700 nM.
For `COc1cc(Nc2cc(Oc3ccc(NC(=O)Nc4cc(C(C)(C)C)cc(CNC(C)=O)c4OC)c4ccccc34)ccn2)cc(OC)c1` [Example 44, N-(5-(tert-Butyl)-3-(3-(4-((2-((3,5-dimethoxyphenyl)amino)pyridin-4-yl)oxy)naphthalen-1-yl)ureido)-2-methoxybenzyl)acetamide], the IC50 [1] was 175 nM, the IC50 (PBMCs [2]) was 1.3 nM and the inhibition at 5 µg/mL (PBMCs [3]) was 42.8%. The “% β-catenin induction” value (d-U937 cells; test compound 1 μg/mL) was 5.0%, the “% β-catenin induction” value (d-U937 cells; test compound 5 μg/mL) was 8.0% and the “% β-catenin induction” value (d-U937 cells; test compound 10 μg/mL) was 11.0%. For the same molecule, the IC50 (GSK 3α) was > 15100 nM.
